Data taken from article PMC2527810, “[^18F]FDG and [^18F]FLT uptake in human breast cancer cells in relation to the effects of chemotherapy: an in vitro study” (British Journal of Cancer, 2008).

Columns and labels:
[1] = biological target: T1, recombinant mitochondrial TK-2 (Homo sapiens, UniProt O00142); assay: Phosphorylation of [CH3-3H]dThd by recombinant TK-2; assay type: biochemical
T1 sequence (O00142 34-265): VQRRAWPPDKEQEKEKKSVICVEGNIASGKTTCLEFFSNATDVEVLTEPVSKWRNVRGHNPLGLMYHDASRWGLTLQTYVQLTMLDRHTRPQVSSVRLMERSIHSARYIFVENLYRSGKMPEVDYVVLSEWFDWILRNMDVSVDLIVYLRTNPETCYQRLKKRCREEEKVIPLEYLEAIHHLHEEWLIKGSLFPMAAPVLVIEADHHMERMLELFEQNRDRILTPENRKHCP
Procedure: (§1) […] A 50 μl reaction mixture, containing 50 mM Tris-HCl, pH 8.0, 2.5 mM MgCl2, 10 mM dithiothreitol, 2.5 mM ATP, 1.0 mg ml^−1 bovine serum albumin, 10 mM NaF, [CH3-^3H]dThd (0.1 μCi in 5 μl; 1 μM final concentration) and 5 μl of recombinant enzyme, was incubated at 37°C for 30 min in the presence or absence of different concentrations of dCTP or KIN52. During this time, the enzyme reaction proceeded linearly. Formation of tritiated dTMP was measured by spotting aliquots of the reaction mixture on Whatman DE-81 filter paper disks, as described earlier ([Balzarini et al, 2003]).

MDA MB231 cells = assay: Separation of cellular FLT and FLT-phosphate by TLC; assay type: cell-based, human; conditions: one hour after adding FLT
Source text: To discriminate between FLT and FLT-phosphate, cells in another identical plate were harvested and after stopping the enzyme reaction, cells were sonificated and spun down. 3′-deoxy-3′-[^18F]fluorothymidine and FLT-phosphate, present in the supernatant were separated as described above (section TK enzyme activity).

purified TK-2 = biological target: T2, purified TK-2 (Homo sapiens, UniProt O00142); assay: FLT phosphorylation by purified TK-2; assay type: biochemical
T2 construct: gift: A. Karlsson, Karolinska Institute, Stockholm, Sweden
T2 sequence (O00142 34-265): T1 sequence (O00142 34-265)
Procedure: (§2) 3′-deoxy-3′-[^18F]fluorothymidine was diluted with 50 mM Tris/1 mM EDTA (pH 7.4) and 1 : 1 mixed with 20 mM ATP, 10 mM MgCl2, resulting in an FLT concentration of about 60 MBq ml^−1 (6.32–18.89 pmol per sample). […] was inhibited by addition of dCTP or the specific TK-2 inhibitor KIN52 (final concentration 2 μM) ([Balzarini et al, 2003]).
(§3) The assay was optimised for protein concentration and incubation times. Diluted cell lysates or purified TK-2 (kindly provided by A. Karlsson, Karolinska Institute, Stockholm, Sweden) were incubated with the FLT mixture for 15 min at 37°C and the reaction was stopped by heating the samples at 95°C for 5 min. Substrate (FLT) and product (FLT-phosphate) were separated by TLC and radioactivity was measured in a single-well gamma counter (Wallac1480 Wizard, Perkin Elmer Lifescience, MA, USA). Protein concentrations were measured in a Bio-Rad Bradford protein assay (Bio-Rad Laboratories, Hercules, CA, USA). Thymidine kinase activity was calculated as the amount of FLT converted into FLT-phosphate per hour per million cells (nmol h^−1 10^−6 cells).

[2] = biological target: T3, recombinant cytosolic TK-1 (Homo sapiens, UniProt P04183); assay: Phosphorylation of [CH3-3H]dThd by recombinant TK-1; assay type: biochemical
T3 sequence (P04183 1-234): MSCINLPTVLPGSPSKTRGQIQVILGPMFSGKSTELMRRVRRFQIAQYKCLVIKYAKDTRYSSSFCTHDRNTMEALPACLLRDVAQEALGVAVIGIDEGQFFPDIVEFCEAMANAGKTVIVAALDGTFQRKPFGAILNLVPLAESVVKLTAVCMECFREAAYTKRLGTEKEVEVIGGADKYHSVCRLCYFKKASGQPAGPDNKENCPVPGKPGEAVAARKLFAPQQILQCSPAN
Procedure: A 50 μl reaction mixture, containing 50 mM Tris-HCl, pH 8.0, 2.5 mM MgCl2, 10 mM dithiothreitol, 2.5 mM ATP, 1.0 mg ml^−1 bovine serum albumin, 10 mM NaF, [CH3-^3H]dThd (0.1 μCi in 5 μl; 1 μM final concentration) and 5 μl of recombinant enzyme, was incubated at 37°C for 30 min in the presence or absence of different concentrations of dCTP or KIN52.

[3] = test system: cellular TK activities (MDA MB231 cell lysates); assay: Inhibition of cellular TK activity by TK-2 inhibitors added to cell lysates; assay type: biochemical, human; conditions: dCTP 10 μM added to cell lysates
Procedure: Cell pellets were suspended in 50 mM Tris/1 mM EDTA (pH 7.4) and sonificated on ice. Lysates were spun down and supernatant diluted 1 : 8 in 50 mM Tris/1 mM EDTA (pH 7.4).
as §2, §3

[4] = substrate: Cc1cn([C@H]2C[C@H](O)[C@@H](CO)O2)c(=O)[nH]c1=O; assay: Phosphorylation of [CH3-3H]dThd by recombinant TK-2; assay type: biochemical; conditions: other: TK-2, Lineweaver–Burk; pH 8.0; 37.0 °C
Procedure: as §1

Cc1cn([C@H]2C[C@H]([18F])[C@@H](CO)O2)c(=O)[nH]c1=O [FLT, 3′-deoxy-3′-[^18F]fluorothymidine]
Ki/Km ([1]; TK-2): 3.2 | Ki ([1]; TK-2, competitive vs dThd, read-out: Ki FLT): 4.2 µM | cellular radioactivity as unphosphorylated FLT (MDA MB231 cells): less than 20% | cellular radioactivity counts due to FLT phosphate (MDA MB231 cells): more than 80% | conversion of FLT into FLT-phosphate (purified TK-2; FLT added to purified TK-2): 8% | Ki ([2]; TK-1, competitive vs dThd, read-out: Ki FLT): 1.9 µM

Nc1ccn([C@H]2C[C@H](O)[C@@H](COP(=O)(O)OP(=O)(O)OP(=O)(O)O)O2)c(=O)n1 [dCTP]
IC50 ([1]; TK-2, 1 μM [CH3-3H]dThd as substrate): ~50 µM | inhibition of cellular TK activities [3]: 55–90% | inhibition of FLT phosphorylation by TK-2 (purified TK-2; dCTP 10 mM): 97% | IC50 ([2]; TK-1, 1 μM [CH3-3H]dThd as substrate): ~5 µM

B1: recombinant mitochondrial TK-2 (Homo sapiens) (protein)
chain: T1 sequence (O00142 34-265)
Km [4]: 1.3 µM
